The values below come from US7129271B2, “Compounds for pest control and methods for their use” (The United States of America as represented by the …, priority 2000, dated 2006).

Structures are written as SMILES. Values after ≈ are worked out from the molar mass of the structure shown. Like-named read-outs stand apart in the source and are kept apart here.

In data set [1] the test system is adult Xenopsylla cheopis fleas. Description: Treated-vial biocidal screening, residual challenge (Example 2). It is filed as in vivo. Conditions: treated vials sat 5 wk; arthropods added for final 24 h. Here is the method: (§1) Samples of the compounds listed below Were obtained from Dr. Karchesy, a co-inventor, and screened for biocidal activities against nymphal Ixodes scapularis. In this example, 2% acetone solutions (wt./vol.) of the compounds were applied to inner surfaces of 2-dram friction cap vials. Vials and caps were treated then allowed to dry for a minimum of 4 hours before placing 10 nymphs in each container. These same vials were used to challenge additional nymphs and adult I. scapularis ticks and adult Xenopsylla cheopis fleas through five weeks to observe any possible residual activity.
(§2) Numbers in parentheses refer to length of treatment in terms of hours (h) or weeks (wk). Data is presented in terms of number killed/number tested. For test periods longer than 24 hours, the treated vials were allowed to sit for the stated period after drying (72 h, 4 wk, or 5 wk) and each group of arthropods was added to the vials for the final 24 h of the test period.

Data set [2] relates to nymphal Ixodes scapularis. Description: Treated-vial biocidal screening, 2% acetone solutions (Example 2). It is filed as in vivo. The following applies: for I. scapularis nymphs (24 h), number killed/number tested: 2% acetone solution (wt./vol.) dried in vials; for I. scapularis nymphs (72 h), number killed/number tested: treated vials sat 72 h, arthropods added for final 24 h. Here is the method: as §1, §2

Data set [3] has as its system Ae. aegypti adults. Description: Mosquito bottle bioassay (Example 9). The following applies: 24 h exposure, 95% CI in parentheses. It is filed as in vivo. On the procedure:
Mosquito Colonies. Aedes aegypti adult mosquitoes were obtained from an existing colony at the Centers for Disease Control and Prevention (CDC), Division of Vector-Borne Infectious Diseases (DVBID), Fort Collins, Colo. This colony has been maintained for over fifteen years with no known history of exposure to pesticides. Mosquitoes were reared at 28° C., 85% RH, and a 14:10 h (light:dark) cycle. Larvae were grown in de-ionized water and fed ground liver powder solution ad libitum. Fourth instars were removed and placed in emergence cages, and adults were fed a 2% sucrose solution until assayed. Adults were exposed to test products at 4–7 d after emergence.
(§3) Mosquit Bioassay. Adult mosquitoes were tested using the bottle bioassay method of Brogden, W. G., and McAllister, J. C., J. Am. Mosq. Control Assoc. 14:159–64 (1998), with minor modifications. Natural product extracts were two-fold serially diluted for a total of 8 concentrations ranging from 0.002% to 0.25% in 1.5 ml of acetone. Individual dilutions were added to 250 ml Wheaton glass bottles and capped. Bottles were manipulated to evenly coat all inner surfaces. The caps were removed and bottles were allowed to air-dry overnight. Once bottles were completely dry, 10–50 adult mosquitoes were aspirated into the bottles. Mosquitoes were held in the bottles for 24 h at 23° C. and 85% RH. Morbidity and mortality were recorded at 15, 30, 45, and 60 min and 24 hour intervals. One bottle for each replicate was treated with acetone only and served as a control. The dose-mortality data was evaluated with probit analysis, using the LdP Line software, to determine LC50 and LC90 values.

Data set [4] concerns I. scapularis nymphs. Description: Tick bioassay, modified disposable pipette method, treated vials (Example 9). It is filed as in vivo, Ixodes scapularis. Conditions: 24 h exposure, 95% CI in parentheses. On the procedure:
Tick Colonies. […] There was no known pesticide used at this location. Ticks were maintained at 21° C., 90% RH, and received a 16:8 h (light:dark) cycle as described in […]. Med. […] Tick and Flea Bioassays. […] A control treated with acetone only was run with each series. Tick and flea susceptibility was evaluated using a modified disposable pipette method. See, Barnard, D. R., et al., J. Econ. […] Three to 4 holes were made in the plastic cap to allow for air exchange. Nymphal ticks and adult fleas were then placed directly into the vials using forceps. Vials containing ticks or fleas were placed in desiccators for 24 h at 21° C. and 90% RH. […] For each time point, if ticks were incapable of movement, maintaining normal posture, leg coordination, ability to right themselves, or any signs of life, they were considered moribund or dead.

Data set [5] deals with X. cheopis adults. Description: Flea bioassay, treated vials (Example 9). It counts as in vivo. The following applies: 24 h exposure, 95% CI in parentheses. Here is the method: Flea Colonies. Adult X. cheopis fleas (1–3 wk old) were obtained from a colony founded more than eight years ago using adults received from Tom Schwan, Rocky Mountain Laboratories, Hamilton, Mont. The area from which these original adult fleas were obtained, and the resulting colony, have no known histories of pesticide exposure.
Tick and Flea Bioassays. Concentrations of the compounds were prepared by 2-fold serial dilutions of a 0.5% (wt:vol) solution of the extracts in acetone. […] A control treated with acetone only was run with each series. Tick and flea susceptibility was evaluated using a modified disposable pipette method. See, Barnard, D. R., et al., J. Econ. Entomol.
(§4) The inner surface of 2-dram friction cap vials were treated with the compound/acetone solution, or acetone only as a control, and left to air-dry overnight. Three to 4 holes were made in the plastic cap to allow for air exchange. Nymphal ticks and adult fleas were then placed directly into the vials using forceps. Vials containing ticks or fleas were placed in desiccators for 24 h at 21° C. and 90% RH. Morbidity and mortality was recorded at 1, 2, 4, 8, and 24 h after initial exposure.

For data set [6], the system named is adult I. scapularis ticks. Description: Treated-vial biocidal screening, residual challenge (Example 2). It counts as in vivo, Ixodes scapularis. Conditions: treated vials sat 4 wk; arthropods added for final 24 h. Here is the method: as §1, §2
For data set [7], the system named is Xenopsylla cheopis adults. Description: Residual activity, treated vials aged before loading (Example 9). It is filed as in vivo. Here is the method:
(§5) Tick and Flea Bioassays. Concentrations of the compounds were prepared by 2-fold serial dilutions of a 0.5% (wt:vol) solution of the extracts in acetone. The approximate toxicity of individual compounds was determined with a total of 8 doses ranging from 0.002% to 0.25%. […] A control treated with acetone only was run with each series. Tick and flea susceptibility was evaluated using a modified disposable pipette method. See, Barnard, D. R., et al., J. Econ. Entomol. 74:466–69 (1981).
as §4, with “Groups of 10 nymphal I. scapularis and X. cheopis fleas were used in all tests, resulting in a total of 5,240 nymphs and 4,860 fleas exposed to the compounds. The” for “The”

Data set [8] relates to Ixodes scapularis nymphs. The data set is described as above. It is filed as in vivo. On the procedure: as §5
as §4, with “Groups of 10 nymphal I. scapularis and X. cheopis fleas were used in all tests, resulting in a total of 5,240 nymphs and 4,860 fleas exposed to the compounds. The” for “The”

Data set [9] deals with ticks, fleas, formicids and termites. Description: Persistence of biocidal activity, vials treated with 2% solutions (Example 5). It counts as in vivo. Here is the method: as §1
Persistence of biocidal activity was determined for nootkatone and valencene-11,12-epoxide by using the vials as treated with the 2% solutions of Example 2. […] At 11 weeks, the biocidal activity began to dissipate below the 100% mortality level.

Data set [10] relates to ticks, fleas, and mosquitoes. Description: Residual activity, overall statements for ticks, fleas and mosquitoes (Example 9). The following applies: 1 to 4 weeks after treatment.
The test system of data set [11] is nymphal I. scapularis. Description: Baseline dose-mortality, method of Maupin and Piesman 1994 (Example 7). Conditions: nymphal ticks. It is filed as in vivo. The source says: Baseline dose-mortalities were established for nymphal I. scapularis for nootkatone and valencene-11,12-epoxide using the method described in Maupin, G. O., and Piesman, J., J. Med. Entomol., 31:319–21 (1994).
A comparison of relative potency was made with published data for carbaryl and permethrin (Maupin and Piesman, 1994) and Alaska yellow cedar essential oil (Panella et al., J. Med. Entomol. 34:340–45 (1997) is presented in Table 6.

Data set [12] relates to Aedes aegypti adults. Description: Residual activity, treated bottles aged before loading (Example 9). It counts as in vivo. Here is the method:
as §3

[13] abbreviates: residual activity at 1 week after treatment.
[14] abbreviates: residual activity at 2 weeks after treatment.
Where [15] appears, read: residual activity at 4 weeks after treatment.

Consider `C=C(C)[C@@H]1CCC2=CCC[C@@H](C)[C@]2(C)C1` [Compound 5, Valencene], for which the “X. cheopis adults (5 wk), number killed/number tested” value in data set [1] is 0/5. For the same compound, in data set [2], the “I. scapularis nymphs (24 h), number killed/number tested” value is recorded as 10/10 and the “I. scapularis nymphs (72 h), number killed/number tested” value was 0/5. In data set [3], the LC50 was 0.015 (0.008–0.029) percent concentration, wt:vol and the LC90 is on record as 0.037 (0.031–0.162) percent concentration, wt:vol. Besides, in data set [4], the LC50 is given as 0.598 percent concentration, wt:vol and the LC90 is 44.837 percent concentration, wt:vol. In addition, in data set [5], the LC50 is 0.041 (0.034–0.049) percent concentration, wt:vol and the LC90 was 0.063 (0.052–0.093) percent concentration, wt:vol. Moreover, the “I. scapularis adults (4 wk), number killed/number tested” value in data set [6] is on record as 0/5.
One may read the mortality as the percentage killed. High values mean fewer survivors, low ones more survivors. As to `C=C(C)[C@@H]1CCC2=CC(=O)C[C@@H](C)[C@]2(C)C1` [Compound 7, Nootkatone], the “X. cheopis adults (5 wk), number killed/number tested” value in data set [1] is 5/5. In addition, the “I. scapularis nymphs (24 h), number killed/number tested” value in data set [2] was 10/10. In addition, the “I. scapularis nymphs (72 h), number killed/number tested” value in [2] was 5/5. Also, the LC50 in data set [7] (setting [13]) is reported as 0.016 (0.012–0.02) percent concentration, wt:vol; in [7] (setting [14]) it was 0.031 percent concentration, wt:vol; in data set [7] (setting [15]), 0.031 percent concentration, wt:vol; in [8] (setting [13]), 0.023 percent concentration, wt:vol; in data set [8] (setting [14]), 0.026 (0.018–0.039) percent concentration, wt:vol; in data set [8] (setting [15]), 0.026 (0.018–0.039) percent concentration, wt:vol. Moreover, the LC50 in data set [3] (Aedes aegypti, 24 h, read-out: LC50) is 57 µg/mL (≈ 261 µM); in data set [4], 0.0029 (0.0025–0.0034) percent concentration, wt:vol; in [5] it was 0.0083 (0.0064–0.01) percent concentration, wt:vol; in data set [12] (setting [13]), 0.02 (0.014–0.029) percent concentration, wt:vol; in data set [12] (setting [14]), 0.019 (0.016–0.022) percent concentration, wt:vol; in data set [12] (setting [15]) it was 0.013 (0.011–0.015) percent concentration, wt:vol. Also, the LC90 was 0.05 (0.036–0.081) percent concentration, wt:vol in data set [7] (setting [13]); 0.134 percent concentration, wt:vol in [7] (setting [14]); 0.13 percent concentration, wt:vol in [8] (setting [13]); 0.168 (0.094–0.448) percent concentration, wt:vol in data set [8] (setting [14]); 0.164 (0.093–0.429) percent concentration, wt:vol in data set [8] (setting [15]); 0.054 (0.041–0.105) percent concentration, wt:vol in data set [12] (setting [13]). Moreover, the LC90 in data set [12] (setting [14]) is listed as 0.046 (0.037–0.061) percent concentration, wt:vol; in data set [12] (setting [15]), 0.038 (0.031–0.051) percent concentration, wt:vol. This compound also returned a mortality in data set [9] (24 hour exposure at each test through 10 weeks, each group of arthropods) of 100%. The “time at which biocidal activity began to dissipate below the 100% mortality level” value in data set [9] (vials treated with 2% solutions) was determined as 11 weeks. In data set [10], the “residual activity (in words)” value is “considerable biological activity”. Besides, in data set [11], the “more effective than essential oil of Alaska yellow cedar” value is listed as “about 98%”. Also, the “potency relative to essential oil of Alaska yellow cedar” value in data set [11] is reported as “approximately 50 times”. The “I. scapularis adults (4 wk), number killed/number tested” value in [6] was 5/5.
Take `C=C(C)C1CC=C2C=CCC(C)C2(C)C1` (stereo not drawn) [Compound 6, Nootkatene]: in data set [1], the “X. cheopis adults (5 wk), number killed/number tested” value is listed as 0/5. Moreover, the “I. scapularis nymphs (24 h), number killed/number tested” value in data set [2] is listed as 10/10. The “I. scapularis nymphs (72 h), number killed/number tested” value in data set [2] is reported as 4/5. The LC50 is given as 2.062 percent concentration, wt:vol in data set [8] (setting [13]); 0.027 percent concentration, wt:vol in data set [3]; 0.011 (0.0086–0.014) percent concentration, wt:vol in data set [4]; 0.011 percent concentration, wt:vol in data set [4] (listed as compound 6); 0.017 (0.012–0.024) percent concentration, wt:vol in [5]; 0.017 percent concentration, wt:vol in data set [5] (listed as compound 6). Further, the LC50 in [12] (setting [13]) is on record as 0.132 (0.096–0.236) percent concentration, wt:vol. In addition, the LC90 in data set [8] (setting [13]) is 524.656 percent concentration, wt:vol; in data set [3], 0.059 percent concentration, wt:vol; in data set [4] it was 0.06 (0.043–0.098) percent concentration, wt:vol; in data set [5] it was 0.075 (0.049–0.151) percent concentration, wt:vol; in data set [12] (setting [13]), 0.659 (0.329–2.855) percent concentration, wt:vol. For the same compound, the “residual activity (in words)” value in data set [10] is “nearly inactive”; in data set [10] (listed as compound 6), “did not demonstrate any residual activity after one week”. For the same compound, the “I. scapularis adults (4 wk), number killed/number tested” value in data set [6] is 0/5.
